Measurements published in US6583137B1, “Protease inhibitors” (SmithKline Beecham Corporation, priority 1999, dated 2003).

Experiment: Chiral / configurational stability at the carbon alpha to the ketone
Assay type: physicochemical

## [2H]C1(NC(=O)[C@H](CC(C)C)NC(=O)c2cnc3ccccc3n2)CCCN(S(=O)(=O)c2cccc[n+]2[O-])C([2H])([2H])C1=O (stereo partly drawn) [present compound, quinoxaline-2-carboxylic acid {(S)-3-methyl-1-[(2,2′,4-trideuterio)-3-oxo-1-(1-oxy-pyridine-2-sulfonyl)-azepan-4-ylcarbamoyl]-butyl}amide]
Compared to the corresponding 5 and 6 membered ring compounds
  configurational stability at the carbon center alpha to the ketone: configurationally more stable
Compared to the protonated isomer
  chiral stability: superior chiral stability
